Test results taken from ChEMBL document CHEMBL1122402, “Antidiabetic activity of some 1-substituted 3,5-dimethylpyrazoles” (1983).

Organism: Mus musculus
Assay: Hypoglycemic activity in alloxan-diabetic female albino mice expressed as percentage reduction of plasma glucose levels
Format: functional
Set-up: concentration or dose not given beside the values

SMILES | Reduction [%]
Cc1cc(C)n(C(=O)c2ccc(S(=O)(=O)NC(=O)NCc3ccccc3)cc2)n1 | <1
CCNC(=O)NS(=O)(=O)c1ccc(C(=O)n2nc(C)c(Br)c2C)cc1 | 1
CCCCNC(=O)NS(=O)(=O)c1ccc(NC(=O)n2nc(C)cc2C)cc1 | 7.5
Cc1nn(-c2ccc(S(=O)(=O)NC(=O)NC3CCCCC3)cc2)c(C)c1Br | 2.5
Cc1cc(C)n(C(=O)c2ccc(NC(=O)Nc3ccccc3)cc2)n1 | 6
CCCCNC(=O)NS(=O)(=O)c1ccc(C(=O)n2nc(C)cc2C)cc1 | 2
CCCNC(=O)NNC(=O)Cn1nc(C)cc1C | 1
Cc1cc(C)n(C(=O)Nc2ccc(S(=O)(=O)NC(=O)NC3CCCCC3)cc2)n1 | 9
Cc1nn(C(=O)c2ccc(S(=O)(=O)NC(=O)NC3CCCCC3)cc2)c(C)c1Br | 1
CCNC(=O)NNC(=O)Cn1nc(C)cc1C | 1
Cc1nn(C(=O)c2ccc(NC(=O)Nc3ccccc3)cc2)c(C)c1Br | <1
CCNC(=O)NS(=O)(=O)c1ccc(-n2nc(C)c(Br)c2C)cc1 | <1
Cc1cc(C)n(C(=O)c2ccc(NC(=O)NC3CCCCC3)cc2)n1 | 20
CCCNC(=O)Nc1ccc(C(=O)n2nc(C)c(Br)c2C)cc1 | 5
CCCCNC(=O)NS(=O)(=O)c1ccc(NC(=O)n2nc(C)c(Br)c2C)cc1 | 2
Cc1cc(C)n(C(=O)c2cccnc2)n1 | <1
Cc1cc(C)n(C(=O)Nc2ccc(S(=O)(=O)NC(=O)NCc3ccccc3)cc2)n1 | 1
CCNC(=O)NS(=O)(=O)c1ccc(NC(=O)n2nc(C)cc2C)cc1 | 4
CCCCNC(=O)NS(=O)(=O)c1ccc(-n2nc(C)c(Br)c2C)cc1 | 3
CCCCNC(=O)Nc1ccc(C(=O)n2nc(C)cc2C)cc1 | 15
Cc1nn(C(=O)c2ccc(S(=O)(=O)NC(=O)NCc3ccccc3)cc2)c(C)c1Br | 2
Cc1nn(-c2ccc(S(=O)(=O)NC(=O)Nc3ccccc3)cc2)c(C)c1Br | <1

SMILES | Reduction [%]
CCCNC(=O)NS(=O)(=O)c1ccc(NC(=O)n2nc(C)cc2C)cc1 | 6
Cc1nn(C(=O)c2ccc(NC(=O)NC3CCCCC3)cc2)c(C)c1Br | 2.5
Cc1cc(C)n(C(=O)c2ccc(S(=O)(=O)NC(=O)Nc3ccccc3)cc2)n1 | 2
Cc1cc(C)n(CC(=O)NNC(=O)NCc2ccccc2)n1 | <1
Cc1cc(C)n(C(=O)c2ccc(S(=O)(=O)NC(=O)NC3CCCCC3)cc2)n1 | <1
Cc1cc(C)n(CC(=O)NNC(=O)NC2CCCCC2)n1 | 2.5
CCNC(=O)NS(=O)(=O)c1ccc(C(=O)n2nc(C)cc2C)cc1 | <1
Cc1cc(C)n(CC(=O)n2nc(C)cc2C)n1 | 2.5
CCCCNC(=O)Nc1ccc(C(=O)n2nc(C)c(Br)c2C)cc1 | 6
CCNC(=O)NS(=O)(=O)c1ccc(NC(=O)n2nc(C)c(Br)c2C)cc1 | <1
CCCNC(=O)NS(=O)(=O)c1ccc(C(=O)n2nc(C)cc2C)cc1 | <1
CCCNC(=O)Nc1ccc(C(=O)n2nc(C)cc2C)cc1 | 8
CCCNC(=O)NS(=O)(=O)c1ccc(-n2nc(C)c(Br)c2C)cc1 | 2
Cc1nn(C(=O)Nc2ccc(S(=O)(=O)NC(=O)NC3CCCCC3)cc2)c(C)c1Br | 4
Cc1cc(C)n(C(=O)n2nc(C)cc2C)n1 | 2.5
CCCNC(=O)NS(=O)(=O)c1ccc(NC(=O)n2nc(C)c(Br)c2C)cc1 | 1
Cc1cc(C)n(C(=O)c2ccccc2O)n1 | <1
Cc1cc(C)n(C(=O)Nc2ccc(S(=O)(=O)NC(=O)Nc3ccccc3)cc2)n1 | 2
Cc1nn(C(=O)c2ccc(S(=O)(=O)NC(=O)Nc3ccccc3)cc2)c(C)c1Br | 3
Cc1cc(C)n(C(=O)c2ccncc2)n1 | <1
CCCCNC(=O)NNC(=O)Cn1nc(C)cc1C | 2
